Measurements as given in ChEMBL document CHEMBL3217484, “N1-Benzyl substituted cambinol analogues as isozyme selective inhibitors of the sirtuin family of protein deacetylases” (Medchemcomm, 2011).

Legend:
[1] = molecular target: T1, NAD-dependent protein deacetylase sirtuin-1 (Homo sapiens) (UniProt Q96EB6); assay: Inhibition of human recombinant SIRT1 using fluor de Lys as substrate at 60 uM after 1 hr by fluorimeter analysis
T1 sequence (whole entry): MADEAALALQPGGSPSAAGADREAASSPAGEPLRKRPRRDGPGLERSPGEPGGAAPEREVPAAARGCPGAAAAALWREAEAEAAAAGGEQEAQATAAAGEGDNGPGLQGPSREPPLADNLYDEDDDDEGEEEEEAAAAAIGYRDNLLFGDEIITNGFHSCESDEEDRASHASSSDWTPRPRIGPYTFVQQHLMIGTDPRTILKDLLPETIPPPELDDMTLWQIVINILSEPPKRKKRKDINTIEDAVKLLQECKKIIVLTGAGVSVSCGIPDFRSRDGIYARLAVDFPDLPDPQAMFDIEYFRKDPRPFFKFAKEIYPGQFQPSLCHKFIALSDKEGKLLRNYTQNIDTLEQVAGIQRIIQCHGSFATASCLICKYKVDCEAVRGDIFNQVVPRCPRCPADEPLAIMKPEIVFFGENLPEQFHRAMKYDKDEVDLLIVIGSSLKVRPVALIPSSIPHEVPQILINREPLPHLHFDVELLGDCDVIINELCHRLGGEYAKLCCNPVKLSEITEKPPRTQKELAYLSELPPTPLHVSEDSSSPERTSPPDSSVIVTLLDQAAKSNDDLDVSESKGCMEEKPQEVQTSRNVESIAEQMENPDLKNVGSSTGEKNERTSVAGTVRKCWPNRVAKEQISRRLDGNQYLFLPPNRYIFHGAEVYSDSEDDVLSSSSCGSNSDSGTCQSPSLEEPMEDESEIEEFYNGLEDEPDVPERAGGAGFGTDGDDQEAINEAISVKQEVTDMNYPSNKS

[2] = molecular target: T2, NAD-dependent protein deacetylase sirtuin-2 (Homo sapiens) (UniProt Q8IXJ6); assay: Inhibition of human recombinant SIRT2 using fluor de Lys as substrate at 60 uM after 1 hr by fluorimeter analysis
T2 sequence (whole entry): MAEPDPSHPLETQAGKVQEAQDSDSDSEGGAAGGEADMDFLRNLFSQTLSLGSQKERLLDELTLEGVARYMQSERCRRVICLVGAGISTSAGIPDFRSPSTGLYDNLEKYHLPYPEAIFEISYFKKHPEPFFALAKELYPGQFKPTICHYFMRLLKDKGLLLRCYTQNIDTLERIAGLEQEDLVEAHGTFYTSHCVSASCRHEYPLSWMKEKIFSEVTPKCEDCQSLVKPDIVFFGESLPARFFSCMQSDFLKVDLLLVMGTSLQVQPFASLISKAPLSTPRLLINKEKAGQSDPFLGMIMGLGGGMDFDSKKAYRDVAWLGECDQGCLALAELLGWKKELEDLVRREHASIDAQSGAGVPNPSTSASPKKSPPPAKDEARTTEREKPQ

[3] = molecular target: T3, NAD-dependent protein deacetylase sirtuin-2 (Homo sapiens, UniProt Q8IXJ6); assay: Inhibition of human recombinant SIRT2 using fluor de Lys as substrate after 1 hr by fluorimeter analysis
T3 sequence (Q8IXJ6 whole entry): T2 sequence (whole entry)

[4] = molecular target: T4, NAD-dependent protein deacetylase sirtuin-1 (Homo sapiens, UniProt Q96EB6); assay: Inhibition of human recombinant SIRT1 using fluor de Lys as substrate after 1 hr by fluorimeter analysis
T4 sequence (Q96EB6 whole entry): T1 sequence (whole entry)

[5] = tested on: H1299; assay: Inhibition of sirtuin in human H1299 cells assessed increase in alpha-tubulin acetylation at 60 uM after 24 hrs by Western blot analysis in presence of trichostatin-A relative to control; format: cell-based

SMILES | inhibition [1] [%] | inhibition [2] [%] | IC50 [3] [µM] | IC50 [4] [µM] | fold change (FC) [5]
COc1ccc2ccccc2c1Cc1c(-c2ccccc2)n(C)c(=S)[nH]c1=O | 36.2 | 37.7 |  |  | 
CCCOc1ccc(Cn2c(-c3ccccc3)c(Cc3c(O)ccc4ccccc34)c(=O)[nH]c2=S)cc1 | 15.6 | 85.4 | 6 | > 120 | 
CCOc1ccc(Cn2c(-c3ccccc3)c(Cc3c(O)ccc4ccccc34)c(=O)[nH]c2=S)cc1 | 13.4 | 88.9 | 4 | > 120 | 1.7
COc1ccc(Cn2c(-c3ccccc3)c(Cc3c(O)ccc4ccccc34)c(=O)[nH]c2=S)cc1 |  | 73.4 | 12 | 58.2 | 
CCCOc1ccc(Cn2c(-c3ccccc3)c(Cc3c(OCc4ccccc4)ccc4ccccc34)c(=O)[nH]c2=S)cc1 | 22.8 | 65.1 |  |  | 
COc1ccc(Cn2c(-c3ccccc3)c(Cc3ccccc3)c(=O)[nH]c2=S)cc1 | 32.2 | 67 |  |  | 
COc1ccc(Cn2c(-c3ccccc3)c(Cc3c(OCc4ccccc4)ccc4ccccc34)c(=O)[nH]c2=S)cc1 | 29.8 | 56.9 |  |  | 
CCCCn1c(-c2ccccc2C)c(Cc2c(OC)ccc3ccccc23)c(=O)[nH]c1=S | 11.5 | 37.3 |  |  | 
COc1ccc2ccccc2c1Cc1c(-c2ccccc2)n(Cc2ccccc2)c(=S)[nH]c1=O |  | 37.7 |  |  | 
CCCCn1c(-c2ccc(Cl)cc2)c(Cc2c(OC)ccc3ccccc23)c(=O)[nH]c1=S | 18.4 | 49.4 |  |  | 
O=c1[nH]c(=S)n(Cc2ccccc2)c(-c2ccccc2)c1Cc1c(OCc2ccccc2)ccc2ccccc12 | 25.4 | 48.4 |  |  | 
O=c1[nH]c(=S)n(Cc2ccccc2)c(-c2ccccc2)c1Cc1ccccc1 | 23 | 45.1 |  |  | 
CCOc1ccc(Cn2c(-c3ccccc3)c(Cc3ccccc3)c(=O)[nH]c2=S)cc1 | 35 | 73.3 | 10 | 68.1 | 
CCCCOc1ccc(Cn2c(-c3ccccc3)c(Cc3c(OC)ccc4ccccc34)c(=O)[nH]c2=S)cc1 | 32.7 | 66.1 |  |  | 
CCOc1ccc(Cn2c(-c3ccccc3)c(Cc3c(OCc4ccccc4)ccc4ccccc34)c(=O)[nH]c2=S)cc1 | 36.6 | 67.2 |  |  | 
O=c1[nH]c(=S)n(Cc2ccccc2)c(-c2ccccc2)c1Cc1c(O)ccc2ccccc12 | 10.8 | 62 |  |  | 
CCCOc1ccc(Cn2c(-c3ccccc3)c(Cc3c(OC)ccc4ccccc34)c(=O)[nH]c2=S)cc1 | 38 | 71.8 | 11 | 61.9 | 
COc1ccc(Cn2c(-c3ccccc3)c(Cc3c(OC)ccc4ccccc34)c(=O)[nH]c2=S)cc1 | 8.8 | 66.1 |  |  | 
O=c1[nH]c(=S)[nH]c(-c2ccccc2)c1Cc1c(O)ccc2ccccc12 |  |  |  |  | 1.3
O=c1cc(-c2ccccc2)n(Cc2ccccc2)c(=S)[nH]1 | 1.8 | 27 |  |  | 
CCCCOc1ccc(Cn2c(-c3ccccc3)c(Cc3ccccc3)c(=O)[nH]c2=S)cc1 | 8.5 | 63.3 |  |  | 
CCOc1ccc(Cn2c(-c3ccccc3)c(Cc3c(OC)ccc4ccccc34)c(=O)[nH]c2=S)cc1 | 19.3 | 72.2 | 16 | > 120 | 
